{"source": "ChEMBL document CHEMBL3351363", "about": "(J Med Chem, 2014)", "key": {"[1]": {"target": "T1, Muscarinic acetylcholine receptor M2 (Homo sapiens, UniProt P08172)", "T1 sequence (P08172 whole entry)": "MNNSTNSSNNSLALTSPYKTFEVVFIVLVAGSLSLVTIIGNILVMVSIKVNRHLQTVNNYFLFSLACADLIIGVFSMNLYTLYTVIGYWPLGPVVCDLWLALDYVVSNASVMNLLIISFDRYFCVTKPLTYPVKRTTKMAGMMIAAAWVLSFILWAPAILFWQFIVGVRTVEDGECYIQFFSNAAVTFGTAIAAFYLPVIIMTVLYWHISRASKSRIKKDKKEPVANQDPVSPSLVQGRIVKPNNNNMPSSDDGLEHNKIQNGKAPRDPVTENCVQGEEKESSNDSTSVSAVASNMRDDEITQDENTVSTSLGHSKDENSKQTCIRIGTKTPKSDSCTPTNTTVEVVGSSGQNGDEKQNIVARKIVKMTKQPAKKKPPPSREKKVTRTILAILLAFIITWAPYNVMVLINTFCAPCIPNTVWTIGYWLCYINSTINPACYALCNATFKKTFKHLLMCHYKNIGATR", "assay": "Displacement of [3H]NMS from human M2 receptor expressed in CHO cells by microplate scintillation counting based radioligand binding assay", "assay_type": "cell-based"}, "[2]": {"target": "Muscarinic acetylcholine receptor M3 (Homo sapiens, UniProt P20309)", "sequence (P20309 whole entry)": "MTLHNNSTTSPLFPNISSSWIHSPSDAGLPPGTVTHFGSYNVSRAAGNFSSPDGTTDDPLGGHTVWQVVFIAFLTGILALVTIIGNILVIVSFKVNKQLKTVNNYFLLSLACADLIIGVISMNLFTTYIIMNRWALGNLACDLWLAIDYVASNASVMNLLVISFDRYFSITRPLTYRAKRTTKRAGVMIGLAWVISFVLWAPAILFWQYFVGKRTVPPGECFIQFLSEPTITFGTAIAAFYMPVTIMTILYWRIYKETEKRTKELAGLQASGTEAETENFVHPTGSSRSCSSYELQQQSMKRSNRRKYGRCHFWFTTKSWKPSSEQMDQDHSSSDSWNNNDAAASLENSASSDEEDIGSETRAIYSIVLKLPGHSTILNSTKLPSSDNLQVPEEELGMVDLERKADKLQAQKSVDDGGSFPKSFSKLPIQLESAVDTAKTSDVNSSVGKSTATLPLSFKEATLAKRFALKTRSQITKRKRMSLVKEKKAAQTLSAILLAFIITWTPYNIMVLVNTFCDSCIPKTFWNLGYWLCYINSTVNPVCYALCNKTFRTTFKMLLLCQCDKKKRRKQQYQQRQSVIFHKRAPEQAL", "assay": "Displacement of [3H]NMS from human M3 receptor expressed in CHO cells by microplate scintillation counting based radioligand binding assay", "assay_type": "cell-based"}, "[3]": {"target": "T2, Muscarinic acetylcholine receptor M5 (Homo sapiens, UniProt P08912)", "T2 sequence (P08912 whole entry)": "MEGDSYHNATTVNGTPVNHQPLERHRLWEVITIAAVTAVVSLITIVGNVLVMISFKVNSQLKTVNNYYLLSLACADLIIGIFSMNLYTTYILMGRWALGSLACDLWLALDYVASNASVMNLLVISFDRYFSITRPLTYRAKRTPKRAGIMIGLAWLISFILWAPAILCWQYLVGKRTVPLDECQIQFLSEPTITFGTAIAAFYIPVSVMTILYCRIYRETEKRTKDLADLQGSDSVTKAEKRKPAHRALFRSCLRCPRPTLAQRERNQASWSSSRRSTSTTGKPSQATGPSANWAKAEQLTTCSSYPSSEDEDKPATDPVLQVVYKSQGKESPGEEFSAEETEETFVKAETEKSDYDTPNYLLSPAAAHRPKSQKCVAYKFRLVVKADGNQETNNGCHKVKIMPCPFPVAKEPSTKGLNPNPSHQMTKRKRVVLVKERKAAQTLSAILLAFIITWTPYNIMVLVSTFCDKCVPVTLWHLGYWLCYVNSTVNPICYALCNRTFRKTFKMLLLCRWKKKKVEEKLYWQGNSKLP", "assay": "Displacement of [3H]NMS from human M5 receptor expressed in CHO cells by microplate scintillation counting based radioligand binding assay", "assay_type": "cell-based"}, "[4]": {"target": "T3, Muscarinic acetylcholine receptor M1 (Homo sapiens, UniProt P11229)", "T3 sequence (P11229 whole entry)": "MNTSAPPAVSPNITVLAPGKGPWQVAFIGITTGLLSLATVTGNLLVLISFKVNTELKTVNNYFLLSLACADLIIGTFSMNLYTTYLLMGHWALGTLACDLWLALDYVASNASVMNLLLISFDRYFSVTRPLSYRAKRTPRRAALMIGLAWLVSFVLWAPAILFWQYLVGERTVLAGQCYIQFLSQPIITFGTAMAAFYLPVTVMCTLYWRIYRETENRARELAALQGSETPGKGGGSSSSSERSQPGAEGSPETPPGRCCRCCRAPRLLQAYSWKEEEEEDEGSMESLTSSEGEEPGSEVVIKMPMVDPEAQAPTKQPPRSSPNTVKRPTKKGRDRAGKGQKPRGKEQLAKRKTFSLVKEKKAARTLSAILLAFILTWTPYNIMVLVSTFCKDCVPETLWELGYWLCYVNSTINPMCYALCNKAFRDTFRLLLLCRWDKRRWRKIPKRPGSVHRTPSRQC", "assay": "Agonist activity at human M1 receptor expressed in HEK293T cells by BRET based Gq protein engagement assay"}, "[5]": {"target": "T3, Muscarinic acetylcholine receptor M1", "assay": "Positive modulatory activity at human M1 receptor expressed in HEK293T cells assessed as effect on carbachol-induced response by BRET based Gq protein engagement assay", "assay_type": "cell-based, HEK-293T"}, "[6]": {"target": "T4, Muscarinic acetylcholine receptor M1 (Homo sapiens) (UniProt P11229)", "T4 sequence (whole entry)": "T3 sequence (P11229 whole entry)", "assay": "Positive modulatory activity at human M1 receptor expressed in HEK293T cells assessed as effect on carbachol-induced response by BRET based Gq protein engagement assay relative to untreated control", "assay_type": "cell-based", "conditions": "HEK-293T"}, "[7]": {"target": "T4, Muscarinic acetylcholine receptor M1 (Homo sapiens)", "assay": "Agonist activity at human M1 receptor expressed in HEK293T cells by BRET based Gq protein activation assay relative to carbachol", "assay_type": "cell-based", "conditions": "HEK-293T"}, "[8]": {"target": "T3, Muscarinic acetylcholine receptor M1", "assay": "Agonist activity at human M1 receptor expressed in HEK293T cells by BRET based beta-arrestin engagement assay"}, "[9]": {"target": "T5, Muscarinic acetylcholine receptor M4 (Homo sapiens) (UniProt P08173)", "T5 sequence (whole entry)": "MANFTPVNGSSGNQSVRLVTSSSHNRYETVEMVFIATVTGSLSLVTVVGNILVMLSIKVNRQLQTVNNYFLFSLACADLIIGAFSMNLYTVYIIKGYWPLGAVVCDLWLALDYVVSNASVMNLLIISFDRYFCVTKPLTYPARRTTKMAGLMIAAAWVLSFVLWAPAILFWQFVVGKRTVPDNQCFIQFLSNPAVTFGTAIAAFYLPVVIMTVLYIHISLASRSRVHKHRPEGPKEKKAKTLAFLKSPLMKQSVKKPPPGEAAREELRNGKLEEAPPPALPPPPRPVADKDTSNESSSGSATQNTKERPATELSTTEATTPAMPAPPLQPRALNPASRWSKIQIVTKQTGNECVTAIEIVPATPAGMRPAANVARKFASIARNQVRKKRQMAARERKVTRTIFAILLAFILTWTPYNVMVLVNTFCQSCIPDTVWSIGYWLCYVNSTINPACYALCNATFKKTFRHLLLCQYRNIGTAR", "assay": "Antagonist activity at human M4 receptor expressed in HEK293T cells assessed as inhibition of carbachol-induced response by BRET based Gq protein engagement assay relative to untreated control", "assay_type": "cell-based", "conditions": "HEK-293T"}, "[10]": {"target": "T6, Muscarinic acetylcholine receptor M4 (Homo sapiens, UniProt P08173)", "T6 sequence (P08173 whole entry)": "T5 sequence (whole entry)", "assay": "Antagonist activity at human M4 receptor expressed in HEK293T cells assessed as inhibition of carbachol-induced response by beta-arrestin engagement assay", "assay_type": "cell-based, HEK-293T"}, "[11]": {"target": "T6, Muscarinic acetylcholine receptor M4", "assay": "Antagonist activity at human M4 receptor expressed in HEK293T cells assessed as inhibition of xanomeline-induced response by beta-arrestin engagement assay", "assay_type": "cell-based, HEK-293T"}, "[12]": {"target": "T5, Muscarinic acetylcholine receptor M4 (Homo sapiens)", "assay": "Antagonist activity at human M4 receptor expressed in HEK293T cells assessed as inhibition of xanomeline-induced response by beta-arrestin engagement assay relative to untreated control", "assay_type": "cell-based", "conditions": "HEK-293T"}, "[13]": {"target": "T5, Muscarinic acetylcholine receptor M4 (Homo sapiens)", "assay": "Agonist activity at human M4 receptor expressed in HEK293T cells by BRET based Gi protein activation assay relative to carbachol", "conditions": "HEK-293T"}, "[14]": {"target": "T5, Muscarinic acetylcholine receptor M4 (Homo sapiens)", "assay": "Antagonist activity at human M4 receptor expressed in HEK293T cells assessed as inhibition of carbachol-induced response by BRET based Gi protein activation assay relative to untreated control", "conditions": "HEK-293T"}}}
{"smiles": "CCCCC1CCN(CCCN2C(=O)CCc3ccccc32)CC1", "values": [{"measurement": "Ki", "setting": "[1]", "result": 204, "unit": "nM"}, {"measurement": "Ki", "setting": "[2]", "result": 1200, "unit": "nM"}, {"measurement": "Ki", "setting": "[3]", "result": 5370, "unit": "nM"}, {"measurement": "EC50", "setting": "[4]", "result": 60.3, "unit": "nM"}, {"measurement": "EC50", "setting": "[5]", "result": 34.7, "unit": "nM"}, {"measurement": "Emax", "setting": "[6]", "result": 101, "unit": "%"}, {"measurement": "Emax", "setting": "[7]", "result": 57, "unit": "%"}, {"measurement": "EC50", "setting": "[8]", "result": 832, "unit": "nM"}, {"measurement": "Imax", "setting": "[9]", "result": 86, "unit": "%"}, {"measurement": "IC50", "setting": "[10]", "result": 178, "unit": "nM"}, {"measurement": "IC50", "setting": "[11]", "result": 7590, "unit": "nM"}, {"measurement": "Imax", "setting": "[12]", "result": 19, "unit": "%"}, {"measurement": "Emax", "setting": "[13]", "result": 46, "unit": "%"}, {"measurement": "Imax", "setting": "[14]", "result": 55, "unit": "%"}]}
